In DBAASP:
Converted amounts (≈) assume the structure as drawn.

Key:
Test in all cases: ≥ marks a high value that may be exact or a test limit, other limits are often not marked, values filed in µg/mL are converted to µM
[1] = test system: Pseudomonas aeruginosa ATCC 27853
[2] = test system: Staphylococcus aureus ATCC 9144
Escherichia coli HB101 = test system: Escherichia coli HB101
[3] = test system: Escherichia coli ATCC 25922
[4] = test system: Corynebacterium glutamicum ATCC 13032
Enterobacter cloacae = test system: Enterobacter cloacae
Escherichia coli ML-35p = test system: Escherichia coli ML-35p
Klebsiella aerogenes = test system: Klebsiella aerogenes
[5] = test system: Staphylococcus aureus ATCC 25923
Escherichia coli = test system: Escherichia coli
[6] = test system: Pseudomonas aeruginosa PAO1
Pseudomonas aeruginosa = test system: Pseudomonas aeruginosa
Escherichia coli 1 = test system: Escherichia coli 1
Staphylococcus aureus = test system: Staphylococcus aureus
[7] = test system: Staphylococcus aureus ATCC 33591
[8] = test system: Staphylococcus epidermidis ATCC 35984
Bacillus subtilis = test system: Bacillus subtilis
Salmonella typhimurium = test system: Salmonella typhimurium
Micrococcus luteus = test system: Micrococcus luteus
Candida albicans = test system: Candida albicans
[9] = test system: Staphylococcus epidermidis
Proteus mirabilis = test system: Proteus mirabilis
Serratia marcescens = test system: Serratia marcescens
Saccharomyces cerevisiae = test system: Saccharomyces cerevisiae
Shigella dysenteriae = test system: Shigella dysenteriae
[10] = test system: Salmonella enterica subsp. enterica serovar Typhimurium ATCC 14028
Bacillus megaterium = test system: Bacillus megaterium
Escherichia coli ML-35 = test system: Escherichia coli ML-35
Escherichia coli UB1005 = test system: Escherichia coli UB1005
Escherichia coli 078 = test system: Escherichia coli 078
[11] = test system: Bacillus subtilis CMCC 63501
[12] = test system: Salmonella enterica subsp. enterica serovar Typhimurium C77-31
[13] = test system: Staphylococcus aureus ATCC 29213
Escherichia coli K99 = test system: Escherichia coli K99
Escherichia coli K88 = test system: Escherichia coli K88
[14] = test system: Enterococcus faecalis ATCC 29212
[15] = test system: Staphylococcus epidermidis ATCC 12228
[16] = test system: Salmonella enterica subsp. enterica serovar Pullorum C79-13
[17] = test system: Candida albicans ATCC 64550
[18] = test system: Staphylococcus aureus ATCC 6538
[19] = test system: Pseudomonas aeruginosa ATCC 9027
[20] = test system: Escherichia coli ATCC 8739

`NC(N)=NCCC[C@H](NC(=O)[C@@H](N)CO)C(=O)N[C@@H](Cc1c[nH]c2ccccc12)C(=O)N1CCC[C@H]1C(=O)N[C@@H](CO)C(=O)N1CCC[C@H]1C(=O)NCC(=O)N[C@@H](CCCN=C(N)N)C(=O)N1CCC[C@H]1C(=O)N[C@@H](CCCN=C(N)N)C(=O)N1CCC[C@H]1C(=O)N[C@@H](Cc1ccccc1)C(=O)N1CCC[C@H]1C(=O)NCC(=O)O` [SRWPSPGRPRPFPG] showed an MIC [1] of over 100 µM, an MIC [2] of at least 100 µM and an MIC (Escherichia coli HB101) of at least 100 µM. It also gave an MIC [3] of over 100 µM and an MIC [4] of at least 100 µM.

In the case of `CC(C)C[C@H](NC(=O)[C@H](CCCCN)NC(=O)[C@H](CCCCN)NC(=O)[C@H](Cc1ccccc1)NC(=O)[C@H](Cc1ccccc1)NC(=O)[C@H](CCCCN)NC(=O)[C@H](CCCCN)NC(=O)[C@@H](N)Cc1ccccc1)C(=O)N[C@@H](CCCCN)C(=O)N[C@@H](CC(N)=O)C(=O)N[C@@H](CO)C(=O)N[C@H](C(=O)N[C@@H](CCCCN)C(=O)N[C@@H](CCCCN)C(=O)N[C@@H](CCCN=C(N)N)C(=O)O)C(C)C` [FKKFFKKLKNSVKKR], the MIC (Enterobacter cloacae) is reported as 4.15 µM (≈ 8 µg/mL), the MIC [1] is reported as 4.15 µM (≈ 8 µg/mL) and the MIC (Escherichia coli ML-35p) is reported as 2.6 µM (≈ 5 µg/mL). It also gave an MIC (Klebsiella aerogenes) of 8.82 µM (≈ 17 µg/mL), an MIC [5] of 21.3 µM (≈ 41 µg/mL) and an MIC [3] of 6.75 µM (≈ 13 µg/mL). It also gave an MIC (Escherichia coli) of 6.23 µM (≈ 12 µg/mL), an MIC [6] of 3.63 µM (≈ 7 µg/mL) and an MIC (Pseudomonas aeruginosa) of 3.63 µM (≈ 7 µg/mL). For the same compound, the MIC (Escherichia coli 1) was 2.6 µM (≈ 5 µg/mL) and the MIC (Staphylococcus aureus) was 3.63 µM (≈ 7 µg/mL).

In the case of `CC(C)C[C@H](N)C(=O)N[C@@H](CCCCN)C(=O)N[C@@H](CCCCN)C(=O)N[C@@H](C)C(=O)N[C@@H](CCCCN)C(=O)N[C@@H](CCCCN)C(=O)N[C@@H](Cc1ccccc1)C(=O)NCC(=O)N[C@@H](CCCCN)C(=O)N[C@@H](C)C(=O)N[C@@H](Cc1ccccc1)C(=O)N[C@H](C(N)=O)C(C)C` [LKKAKKFGKAFV], the MIC [1] is reported as 265 µM (≈ 362 µg/mL), the MIC [7] is reported as at least 375 µM and the MIC [5] is reported as over 375 µM. For the same compound, the MIC [8] was at least 375 µM.

In the case of `CC[C@H](C)[C@H](NC(=O)CN)C(=O)N[C@@H](CC(C)C)C(=O)N[C@@H](CC(=O)O)C(=O)N[C@H](C(=O)N[C@@H](CC(C)C)C(=O)N[C@@H](CCCCN)C(=O)N[C@@H](CCC(N)=O)C(=O)N[C@@H](Cc1ccccc1)C(=O)N[C@@H](C)C(=O)N[C@@H](CCCCN)C(=O)NCC(=O)N[C@H](C(=O)NCC(=O)N[C@@H](CCCCN)C(=O)N[C@@H](CC(=O)O)C(=O)N[C@@H](CC(C)C)C(=O)N[C@H](C(=O)N[C@@H](CCCCN)C(=O)NCC(=O)N[C@@H](C)C(=O)N[C@@H](C)C(=O)N[C@@H](CCC(N)=O)C(=O)NCC(=O)O)C(C)C)C(C)C)[C@@H](C)O` [GILDTLKQFAKGVGKDLVKGAAQG], the MIC (Bacillus subtilis) is reported as at least 41.4 µM, the MIC (Salmonella typhimurium) is reported as at least 41.4 µM and the MIC (Micrococcus luteus) is reported as 2.07 µM (≈ 5 µg/mL). For the same compound, the MIC (Candida albicans) was over 41.4 µM, the MIC [9] was 31.1 µM (≈ 75 µg/mL) and the MIC (Proteus mirabilis) was 20.7 µM (≈ 50 µg/mL). The MIC (Serratia marcescens) was at least 41.4 µM, the MIC (Saccharomyces cerevisiae) was 20.7 µM (≈ 50 µg/mL) and the MIC (Escherichia coli) was 20.7 µM (≈ 50 µg/mL). The MIC (Pseudomonas aeruginosa) was 20.7 µM (≈ 50 µg/mL) and the MIC (Shigella dysenteriae) was 20.7 µM (≈ 50 µg/mL).

Compound `CC(C)[C@H](NC(=O)[C@H](CCCCN)NC(=O)[C@H](C)NC(=O)[C@@H](NC(=O)[C@@H](NC(=O)[C@H](CCCN=C(N)N)NC(=O)[C@H](CCCN=C(N)N)NC(=O)[C@H](Cc1c[nH]c2ccccc12)NC(=O)[C@H](Cc1c[nH]c2ccccc12)NC(=O)CN)[C@@H](C)O)C(C)C)C(=O)N[C@@H](CCCN=C(N)N)C(=O)N[C@@H](CC(N)=O)C(=O)N[C@@H](C)C(=O)NCC(=O)N[C@@H](CCCN=C(N)N)C(=O)N[C@@H](CCCCN)C(N)=O` [GWWRRTVAKVRNAGRK] has an MIC [1] of 3.1 µM (≈ 6.01 µg/mL), an MIC [2] of 12.5 µM (≈ 24.3 µg/mL) and an MIC [3] of 3.1 µM (≈ 6.01 µg/mL). The MIC [4] was 0.8 µM (≈ 1.55 µg/mL).

Compound `CC[C@H](C)[C@H](NC(=O)[C@H](CCCCN)NC(=O)[C@H](CCCCN)NC(=O)[C@H](CC(C)C)NC(=O)[C@H](CCCCN)NC(=O)[C@H](CCC(=O)O)NC(=O)[C@H](CCCCN)NC(=O)[C@@H](NC(=O)[C@H](CCCCN)NC(=O)[C@H](CC(N)=O)NC(=O)[C@H](CCCN=C(N)N)NC(=O)[C@H](C)NC(=O)[C@H](CCCCN)NC(=O)[C@H](CCCN=C(N)N)NC(=O)[C@H](CC(C)C)NC(=O)[C@H](CCCN=C(N)N)NC(=O)[C@H](CCCCN)NC(=O)[C@H](CCCN=C(N)N)NC(=O)[C@H](CC(C)C)NC(=O)CN)[C@@H](C)CC)C(=O)O` [GLRKRLRKARNKIKEKLKKI] has an MIC [1] of 1 µM (≈ 2.48 µg/mL), an MIC [5] of 8 µM (≈ 19.8 µg/mL) and an MIC [10] of 16 µM (≈ 39.6 µg/mL). It also gave an MIC (Bacillus megaterium) of 8 µM (≈ 19.8 µg/mL), an MIC [3] of 4 µM (≈ 9.91 µg/mL) and an MIC (Escherichia coli ML-35) of 4 µM (≈ 9.91 µg/mL).

`CC[C@H](C)[C@H](NC(=O)[C@H](Cc1c[nH]c2ccccc12)NC(=O)[C@H](CCCCN)NC(=O)[C@H](Cc1c[nH]c2ccccc12)NC(=O)[C@@H](NC(=O)[C@H](CCCCN)NC(=O)CNC(=O)[C@@H](NC(=O)[C@H](CCCCN)NC(=O)[C@H](CCCCN)NC(=O)[C@H](Cc1c[nH]c2ccccc12)NC(=O)[C@@H](N)CCCN=C(N)N)[C@@H](C)CC)C(C)C)C(N)=O` [RWKKIGKVWKWI] showed an MIC (Escherichia coli UB1005) of 8 µM (≈ 13 µg/mL), an MIC (Escherichia coli 078) of 8 µM (≈ 13 µg/mL) and an MIC [11] of 8 µM (≈ 13 µg/mL). For the same compound, the MIC [12] was at least 32 µM, the MIC [13] was 32 µM (≈ 52.1 µg/mL) and the MIC [5] was 32 µM (≈ 52.1 µg/mL). For the same compound, the MIC [10] was 32 µM (≈ 52.1 µg/mL), the MIC [3] was 8 µM (≈ 13 µg/mL) and the MIC (Escherichia coli K99) was 4 µM (≈ 6.51 µg/mL). The MIC (Escherichia coli K88) was 2 µM (≈ 3.25 µg/mL), the MIC [14] was 32 µM (≈ 52.1 µg/mL) and the MIC [15] was 64 µM (≈ 104 µg/mL). It also gave an MIC [16] of 2 µM (≈ 3.25 µg/mL).

`NC(=O)[C@@H]1CCCN1C(=O)[C@H](CCCN=C(N)N)NC(=O)[C@H](CS)NC(=O)[C@H](Cc1ccccc1)NC(=O)[C@H](CCCN=C(N)N)NC(=O)[C@H](CCCN=C(N)N)NC(=O)[C@H](CCCN=C(N)N)NC(=O)[C@H](CS)NC(=O)[C@H](CCCN=C(N)N)NC(=O)[C@@H]1CCCN1` [PRCRRRFCRP] showed an MIC [1] of over 128 µM, an MIC [11] of 16 µM (≈ 21.5 µg/mL) and an MIC [12] of at least 128 µM. It also gave an MIC [13] of over 128 µM, an MIC [3] of 16 µM (≈ 21.5 µg/mL) and an MIC [14] of over 128 µM. The MIC [15] was over 128 µM and the MIC [16] was at least 128 µM.

For `NCCCC[C@H](NC(=O)[C@H](Cc1c[nH]c2ccccc12)NC(=O)[C@H](Cc1ccccc1)NC(=O)[C@@H](N)Cc1c[nH]c2ccccc12)C(=O)N[C@@H](Cc1c[nH]c2ccccc12)C(=O)N[C@@H](Cc1c[nH]c2ccccc12)C(=O)N[C@@H](CCCN=C(N)N)C(=O)N[C@@H](CCCN=C(N)N)C(=O)N[C@@H](CCCN=C(N)N)C(=O)N[C@@H](CCCN=C(N)N)C(=O)N[C@@H](CCCN=C(N)N)C(N)=O` [WFWKWWRRRRR], the MIC [17] was at least 100 µM, the MIC [18] was 1.7 µM (≈ 3.09 µg/mL) and the MIC [19] was 4.6 µM (≈ 8.36 µg/mL). The MIC [20] was 3.1 µM (≈ 5.64 µg/mL).
